target: T1, wild-type FLT3 phosphorylation in Baf3 FLT3 cells (Homo sapiens, UniProt P36888); test: Cell-Based FLT3 Receptor Elisa; settings: 1 hour compound, 100 ng/mL Flt ligand 10 min; uncertainty ±20%
T1 sequence (P36888 27-993): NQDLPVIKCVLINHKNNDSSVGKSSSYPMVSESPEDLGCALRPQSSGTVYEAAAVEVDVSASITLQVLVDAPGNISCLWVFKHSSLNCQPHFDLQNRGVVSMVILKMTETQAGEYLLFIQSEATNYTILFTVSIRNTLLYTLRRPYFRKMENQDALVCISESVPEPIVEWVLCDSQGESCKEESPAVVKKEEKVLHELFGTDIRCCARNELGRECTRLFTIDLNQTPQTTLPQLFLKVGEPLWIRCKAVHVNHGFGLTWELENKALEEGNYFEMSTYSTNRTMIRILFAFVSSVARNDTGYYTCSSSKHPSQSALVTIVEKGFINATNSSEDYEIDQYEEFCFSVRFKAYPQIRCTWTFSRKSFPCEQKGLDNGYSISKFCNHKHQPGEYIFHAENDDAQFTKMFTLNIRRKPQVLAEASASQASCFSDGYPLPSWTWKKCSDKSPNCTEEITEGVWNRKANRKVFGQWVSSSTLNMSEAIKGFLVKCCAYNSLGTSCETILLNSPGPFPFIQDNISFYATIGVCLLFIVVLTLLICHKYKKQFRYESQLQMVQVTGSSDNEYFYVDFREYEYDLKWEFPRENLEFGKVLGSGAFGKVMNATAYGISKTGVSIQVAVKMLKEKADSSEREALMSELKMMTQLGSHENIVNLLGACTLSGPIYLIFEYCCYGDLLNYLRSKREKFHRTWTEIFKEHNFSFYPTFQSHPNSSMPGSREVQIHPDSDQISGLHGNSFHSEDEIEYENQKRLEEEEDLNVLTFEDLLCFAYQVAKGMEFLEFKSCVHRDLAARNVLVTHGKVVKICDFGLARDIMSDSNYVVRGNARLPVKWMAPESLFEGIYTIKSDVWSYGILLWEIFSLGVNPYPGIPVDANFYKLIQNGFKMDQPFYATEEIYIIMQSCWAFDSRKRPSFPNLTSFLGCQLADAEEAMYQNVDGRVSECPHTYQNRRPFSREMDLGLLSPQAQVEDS
Method: Cell-Based FLT3 Receptor Elisa
Specific cellular inhibition of FLT ligand-induced wild-type FLT3 phosphorylation was measured in the following manner: Baf3 FLT3 cells overexpressing the FLT3 receptor were obtained from Dr. Michael Heinrich (Oregon Health and Sciences University). The Baf3 FLT3 cell lines were created by stable transfection of parental Baf3 cells (a murine B cell lymphoma line dependent on the cytokine IL-3 for growth) with wild-type FLT3. Cells were selected for their ability to grow in the absence of IL-3 and in the presence of FLT3 ligand.
Baf3 cells were maintained in RPMI 1640 with 10% FBS, penn/strep and 10 ng/ml FLT ligand at 37° C., 5% CO2. To measure direct inhibition of the wild-type FLT3 receptor activity and phosphorylation a sandwich ELISA method was developed similar to those developed for other RTKs (see Sadick, M D, Sliwkowski, M X, Nuijens, A, Bald, L, Chiang, N, Lofgren, J A, Wong W L T. Analysis of Heregulin-Induced ErbB2 Phosphorylation with a High-Throughput Kinase Receptor Activation Enzyme-Linked Immunsorbent Assay, Analytical Biochemistry. 1996; 235:207-214 and Baumann C A, Zeng L, Donatelli R R, Maroney A C. Development of a quantitative, high-throughput cell-based enzyme-linked immunosorbent assay for detection of colony-stimulating factor-1 receptor tyrosine kinase inhibitors. J Biochem Biophys Methods. 2004; 60:69-79.). 200 μL of Baf3FLT3 cells (1×10^6/mL) were plated in 96 well dishes in RPMI 1640 with 0.5% serum and 0.01 ng/mL IL-3 for 16 hours prior to 1 hour compound or DMSO vehicle incubation. Cells were treated with 100 ng/mL Flt ligand (R&D Systems Cat# 308-FK) for 10 min. at 37° C. Cells were pelleted, washed and lysed in 100 ul lysis buffer (50 mM Hepes, 150 mM NaCl, 10% Glycerol, 1% Triton-X-100, 10 mM NaF, 1 mM EDTA, 1.5 mM MgCl2, 10 mM NaPyrophosphate) supplemented with phosphatase (Sigma Cat# P2850) and protease inhibitors (Sigma Cat #P8340). Lysates were cleared by centrifugation at 1000×g for 5 minutes at 4° C. Cell lysates were transferred to white wall 96 well microtiter (Costar #9018) plates coated with 50 ng/well anti-FLT3 antibody (Santa Cruz Cat# sc-480) and blocked with SeaBlock reagent (Pierce Cat#37527). Lysates were incubated at 4° C. for 2 hours. Plates were washed 3× with 200 ul/well PBS/0.1% Triton-X-100. Plates were then incubated with 1:8000 dilution of HRP-conjugated anti-phosphotyrosine antibody (Clone 4G10, Upstate Biotechnology Cat#16-105) for 1 hour at room temperature. Plates were washed 3× with 200 ul/well PBS/0.1% Triton-X-100. Signal detection with Super Signal Pico reagent (Pierce Cat#37070) was done according to manufacturer's instruction with a Berthold microplate luminometer. All data points are an average of triplicate samples. […] Inhibition and IC50 data analysis was done with GraphPad Prism using a non-linear regression fit with a multiparamater, sigmoidal dose-response (variable slope) equation.

IC50 | Compound
127 nM | CO/N=C/c1c(N)ncnc1N1CCC(NC(=O)Nc2ccc(N3CCCCC3)cc2)C1 (centres unmarked) [Number 9, 1-{1-[6-Amino-5-(methoxyimino-methyl)-pyrimidin-4-yl]-pyrrolidin-3-yl}-3-(4-piperidin-1-yl-phenyl)-urea]
299 nM | CO/N=C/c1c(N)ncnc1N1CCC(NC(=O)Nc2ccc(N3CCCC3)cc2)C1 (centres unmarked) [Number 20, 1-{1-[6-Amino-5-(methoxyimino-methyl)-pyrimidin-4-yl]-pyrrolidin-3-yl}-3-(4-pyrrolidin-1-yl-phenyl)-urea]
99 nM | CO/N=C/c1c(N)ncnc1N1CCC(NC(=O)Nc2ccc(OC3CCCC3)nc2)C1 (centres unmarked) [Number 21, 1-{1-[6-Amino-5-(methoxyimino-methyl)-pyrimidin-4-yl]-pyrrolidin-3-yl}-3-(6-cyclopentyloxy-pyridin-3-yl)-urea]
1300 nM | CO/N=C/c1c(N)ncnc1N1CCC(NC(=O)Nc2ccc(N3CCOCC3)cc2)C1 (centres unmarked) [Number 10, 1-{1-[6-Amino-5-(methoxyimino-methyl)-pyrimidin-4-yl]-pyrrolidin-3-yl}-3-(4-morpholin-4-yl-phenyl)-urea]
299 nM | CO/N=C/c1c(N)ncnc1N1CCC(NC(=O)Nc2ccc(C3CCCCC3)cc2)C1 (centres unmarked) [Number 17, 1-{1-[6-Amino-5-(methoxyimino-methyl)-pyrimidin-4-yl]-pyrrolidin-3-yl}-3-(4-cyclohexyl-phenyl)-urea]
78 nM | CO/N=C/c1c(N)ncnc1N1CCC(NC(=O)Nc2ccc(Cl)cc2)CC1 [Number 25, 1-{1-[6-Amino-5-(methoxyimino-methyl)-pyrimidin-4-yl]-piperidin-4-yl}-3-(4-chloro-phenyl)-urea]
176 nM | CO/N=C/c1c(N)ncnc1N1CCC(NC(=O)Nc2ccc(OC(C)C)cc2)C1 (centres unmarked) [Number 8, 1-{1-[6-Amino-5-(methoxyimino-methyl)-pyrimidin-4-yl]-pyrrolidin-3-yl}-3-(4-isopropoxy-phenyl)-urea]
309 nM | CO/N=C/c1c(N)ncnc1N1CCC(NC(=O)Nc2ccc(Cl)cc2)C1 (centres unmarked) [Number 18, 1-{1-[6-Amino-5-(methoxyimino-methyl)-pyrimidin-4-yl]-pyrrolidin-3-yl}-3-(4-chloro-phenyl)-urea]
35 nM | CO/N=C/c1c(N)ncnc1N1CCC(NC(=O)Nc2ccc(OC3CCCC3)nc2)CC1 [Number 23, 1-{1-[6-Amino-5-(methoxyimino-methyl)-pyrimidin-4-yl]-piperidin-4-yl}-3-(6-cyclopentyloxy-pyridin-3-yl)-urea]

Further lines, the compound ahead of its results:

Compound | IC50
CO/N=C/c1c(N)ncnc1N1CCC(NC(=O)Nc2ccc(N3CCCCC3)cc2)CC1 [Number 13, 1-{1-[6-Amino-5-(methoxyimino-methyl)-pyrimidin-4-yl]-piperidin-4-yl}-3-(4-piperidin-1-yl-phenyl)-urea] | 468 nM
CCNC(=O)NCCO/N=C/c1c(N)ncnc1N1CCC(NC(=O)Nc2ccc(C(C)C)cc2)C1 (centres unmarked) [Number 28, 1-[1-(6-Amino-5-{[2-(3-ethyl-ureido)-ethoxyimino]-methyl}-pyrimidin-4-yl)-pyrrolidin-3-yl]-3-(4-isopropyl-phenyl)-urea] | 2300 nM
CO/N=C/c1c(N)ncnc1N1CCC(NC(=O)Nc2ccc(OC3CCC3)nc2)CC1 [Number 15, 1-{1-[6-Amino-5-(methoxyimino-methyl)-pyrimidin-4-yl]-piperidin-4-yl}-3-(6-cyclobutoxy-pyridin-3-yl)-urea] | 195 nM
CO/N=C/c1c(N)ncnc1N1CCC(NC(=O)Nc2ccc(Oc3ccccc3)cc2)C1 (centres unmarked) [Number 19, 1-{1-[6-Amino-5-(methoxyimino-methyl)-pyrimidin-4-yl]-pyrrolidin-3-yl}-3-(4-phenoxy-phenyl)-urea] | 134 nM
CO/N=C/c1c(N)ncnc1N1CCC(NC(=O)Nc2ccc(OC3CCC3)nc2)C1 (centres unmarked) [Number 11, 1-{1-[6-Amino-5-(methoxyimino-methyl)-pyrimidin-4-yl]-pyrrolidin-3-yl}-3-(6-cyclobutoxy-pyridin-3-yl)-urea] | 229 nM
CO/N=C/c1c(N)ncnc1N1CCC(NC(=O)Nc2ccc(N3CCOCC3)cc2)CC1 [Number 14, 1-{1-[6-Amino-5-(methoxyimino-methyl)-pyrimidin-4-yl]-piperidin-4-yl}-3-(4-morpholin-4-yl-phenyl)-urea] | 292 nM
CC(C)Oc1ccc(NC(=O)OC2CCN(c3ncnc(N)c3/C=N/OCCCN(C)C)CC2)cc1 [Number 4, (4-Isopropoxy-phenyl)-carbamic acid 1-{6-amino-5-[(3-dimethylamino-propoxyimino)-methyl]-pyrimidin-4-yl}-piperidin-4-yl ester] | 345 nM
CO/N=C/c1c(N)ncnc1N1CCC(OC(=O)Nc2ccc(OC(C)C)cc2)CC1 [Number 1, (4-Isopropoxy-phenyl)-carbamic acid 1-[6-amino-5-(methoxyimino-methyl)-pyrimidin-4-yl]-piperidin-4-yl ester] | 204 nM
CO/N=C/c1c(N)ncnc1N1CCC(OC(=O)Nc2ccc(C(C)C)cc2)CC1 [Number 5, (4-Isopropyl-phenyl)-carbamic acid 1-[6-amino-5-(methoxyimino-methyl)-pyrimidin-4-yl]-piperidin-4-yl ester] | 4 nM
CC(C)c1ccc(NC(=O)NC2CCN(c3ncnc(N)c3/C=N/OCC(=O)N3CCOCC3)C2)cc1 (centres unmarked) [Number 29, 1-(1-{6-Amino-5-[(2-morpholin-4-yl-2-oxo-ethoxyimino)-methyl]-pyrimidin-4-yl}-pyrrolidin-3-yl)-3-(4-isopropyl-phenyl)-urea] | 2400 nM
CO/N=C/c1c(N)ncnc1N1CCC(NC(=O)Nc2ccc(OC(C)C)cc2)CC1 [Number 12, 1-{1-[6-Amino-5-(methoxyimino-methyl)-pyrimidin-4-yl]-piperidin-4-yl}-3-(4-isopropoxy-phenyl)-urea] | 217 nM
CO/N=C/c1c(N)ncnc1N1CCC(CC(=O)Nc2ccc(C(C)C)cc2)C1 (centres unmarked) [Number 6, 2-{1-[6-Amino-5-(methoxyimino-methyl)-pyrimidin-4-yl]-pyrrolidin-3-yl}-N-(4-isopropyl-phenyl)-acetamide] | 15 nM
CO/N=C/c1c(N)ncnc1N1CCC(CC(=O)Nc2ccc(C(C)C)cc2)CC1 [Number 7, 2-{1-[6-Amino-5-(methoxyimino-methyl)-pyrimidin-4-yl]-piperidin-4-yl}-N-(4-isopropyl-phenyl)-acetamide] | 169 nM
CCO/N=C/c1c(N)ncnc1N1CCC(OC(=O)Nc2ccc(OC(C)C)cc2)CC1 [Number 2, (4-Isopropoxy-phenyl)-carbamic acid 1-[6-amino-5-(ethoxyimino-methyl)-pyrimidin-4-yl]-piperidin-4-yl ester] | 74 nM
